# “And” between values parts separate entries of the source, which are not always exact repeats. Identical values can stand only once.
# Test system: Hep G2 cells
# Test: Cholesterol measurement in Hep G2 cells exposed to HMG CoA Reductase peptides
# Assay type: cell-based, human
# Conditions: 24 hrs; for Cholesterol Content Cell / Cholesterol Content Media: triplicate; for Total Cholesterol: cell + media
# Text: Cholesterol Measurement in Hep G2 Cells Exposed to HMG CoA Reductase Peptides:
# A. Selection of therapeutic oligopeptides for these expenments • i. The peptides were selected according to the method described herein. In brief, 6 oligopeptides corresponding to the hydrophilic amino acid maxima of human hydroxy-methyl-glutaryl-CoA-reductase were selected according to the maximum hydrophilicity determining algorithm described herein. The following sequences were selected. • I. N-SQDEVREN-C (SEQ ID NO:42) • II. N-ELSRESREGR-C (SEQ ID NO:44) • III. N-RVLEEEENK-C (SEQ ID NO:46) • IV. N-QKCDSVEE-C (SEQ ID NO:56) • V. N-EETGINRERKVE-C (SEQ ID NO:60) • VI. N-EPEIELPREPRPNEE-C (SEQ ID NO:64)
# B. Materials and methods • i. Hep G2 cells were seeded into six-well dishes at 30,0000 cells/well in MEM-supplemented media with 10% FBS. Cells were grown to near confluency and exposed to • I. media alone • II. Mevastatin 5ΦMol (Cholestrol-lowering Statin drug) and, • III. HMG CoA Reductase peptides at 1, 10 and 100 ΦMol. • ii. All treatments were carried out in triplicate. After 24 hrs the media was removed and saved. • iii. The cells were washed with 1 ml of PBS and combined with the media. The cells were harvested with 1 ml of 0.1 N NaOH. • iv. Samples, both media and cells, were saponified with 0.5 ml 50% KOH, 3 ml ethanol, separately at 80EC for 2 hrs. • v. After cooling, the samples were extracted twice with petroleum ether and washed with NaOH. • vi. The samples were the dried under nitrogen and suspended in 200 Φl ethanol. • vii. 50 Φl of this suspension was used for determination of cholesterol. Cholesterol was determined in the samples and standards using colorimetric assay (Sigma Kit). • viii. Protein was determined by Lowry's method and the results were expressed as Φgm cholesterol/mg protein. C. Results • i.
compound,measurement,setting,value
"CC[C@H](C)C(=O)O[C@H]1CCC=C2C=C[C@H](C)[C@H](CC[C@@H]3C[C@@H](O)CC(=O)O3)[C@H]21 [Mevastatin, reference compound]",Cholesterol Lowering in % of Control,5 ΦM,19.0% and 18.0%
same,Cholesterol Content Cell,5 ΦM,125.0 ± 4.6 Φ gm/mg protein and 124.4 ± 4.4 Φ gm/mg protein
same,Cholesterol Content Media,5 ΦM,37.5 ± 3.0 Φ gm/mg protein and 57.5 ± 5.2 Φ gm/mg protein
same,Total Cholesterol,5 ΦM,162.6 ± 7.6 Φ gm/mg protein and 182.0 ± 7.0 Φ gm/mg protein
"N-EETGINRERKVE-C [Peptide 5, oligopeptide corresponding to a hydrophilic amino acid maximum of human hydroxy-methyl-glutaryl-CoA-reductase]",Cholesterol Lowering in % of Control,1 ΦM,1.5%
same,Cholesterol Content Cell,1 ΦM,140.7 ± 8.6 Φ gm/mg protein
same,Cholesterol Content Media,1 ΦM,56.8 ± 1.0 Φ gm/mg protein
same,Cholesterol Lowering in % of Control,10 ΦM,0.0%
same,Cholesterol Content Cell,10 ΦM,149.0 ± 4.4 Φ gm/mg protein
same,Cholesterol Content Media,10 ΦM,50.7 ± 1.0 Φ gm/mg protein
same,Cholesterol Lowering in % of Control,100 ΦM,0.0%
same,Cholesterol Content Cell,100 ΦM,161.7 ± 23.5 Φ gm/mg protein
same,Cholesterol Content Media,100 ΦM,48.0 ± 1.6 Φ gm/mg protein
same,Total Cholesterol,1 ΦM,197.0 ± 9.2 Φ gm/mg protein
same,Total Cholesterol,10 ΦM,200.0 ± 5.0 Φ gm/mg protein
same,Total Cholesterol,100 ΦM,210.0 ± 25.0 Φ gm/mg protein
"N-ELSRESREGR-C [Peptide 2, oligopeptide corresponding to a hydrophilic amino acid maximum of human hydroxy-methyl-glutaryl-CoA-reductase]",Cholesterol Lowering in % of Control,1 ΦM,29.0%
same,Cholesterol Content Cell,1 ΦM,94.0 ± 8.3 Φ gm/mg protein
same,Cholesterol Content Media,1 ΦM,64.3 ± 4.2 Φ gm/mg protein
same,Cholesterol Lowering in % of Control,10 ΦM,33.0%
same,Cholesterol Content Cell,10 ΦM,85.0 ± 8.4 Φ gm/mg protein
same,Cholesterol Content Media,10 ΦM,63.7 ± 9.5 Φ gm/mg protein
same,Cholesterol Lowering in % of Control,100 ΦM,34.0%
same,Cholesterol Content Cell,100 ΦM,86.0 ± 4.7 Φ gm/mg protein
same,Cholesterol Content Media,100 ΦM,59.0 ± 6.0 Φ gm/mg protein
same,Total Cholesterol,1 ΦM,158.3 ± 6.3 Φ gm/mg protein
same,Total Cholesterol,10 ΦM,148.6 ± 11.8 Φ gm/mg protein
same,Total Cholesterol,100 ΦM,146.9 ± 8.8 Φ gm/mg protein
"N-EPEIELPREPRPNEE-C [Peptide 6, oligopeptide corresponding to a hydrophilic amino acid maximum of human hydroxy-methyl-glutaryl-CoA-reductase]",Cholesterol Lowering in % of Control,1 ΦM,4.0%
same,Cholesterol Content Cell,1 ΦM,144.3 ± 7.5 Φ gm/mg protein
same,Cholesterol Content Media,1 ΦM,47.4 ± 0.5 Φ gm/mg protein
same,Cholesterol Lowering in % of Control,10 ΦM,8.0%
same,Cholesterol Content Cell,10 ΦM,136.0 ± 12.2 Φ gm/mg protein
same,Cholesterol Content Media,10 ΦM,48.0 ± 3.4 Φ gm/mg protein
same,Cholesterol Lowering in % of Control,100 ΦM,9.0%
same,Cholesterol Content Cell,100 ΦM,132.0 ± 4.4 Φ gm/mg protein
same,Cholesterol Content Media,100 ΦM,50.4 ± 1.0 Φ gm/mg protein
same,Total Cholesterol,1 ΦM,192.0 ± 8.0 Φ gm/mg protein
same,Total Cholesterol,10 ΦM,184.0 ± 8.4 Φ gm/mg protein
same,Total Cholesterol,100 ΦM,182.4 ± 4.8 Φ gm/mg protein
"N-QKCDSVEE-C [Peptide 4, oligopeptide corresponding to a hydrophilic amino acid maximum of human hydroxy-methyl-glutaryl-CoA-reductase]",Cholesterol Lowering in % of Control,1 ΦM,8.0%
same,Cholesterol Content Cell,1 ΦM,134.7 ± 3.2 Φ gm/mg protein
same,Cholesterol Content Media,1 ΦM,50.4 ± 2.5 Φ gm/mg protein
same,Cholesterol Lowering in % of Control,10 ΦM,10.0%
same,Cholesterol Content Cell,10 ΦM,126.1 ± 4.2 Φ gm/mg protein
same,Cholesterol Content Media,10 ΦM,49.0 ± 1.0 Φ gm/mg protein
same,Cholesterol Lowering in % of Control,100 ΦM,9.0%
same,Cholesterol Content Cell,100 ΦM,127.7 ± 9.3 Φ gm/mg protein
same,Cholesterol Content Media,100 ΦM,53.8 ± 0.5 Φ gm/mg protein
same,Total Cholesterol,1 ΦM,184.3 ± 5.5 Φ gm/mg protein
same,Total Cholesterol,10 ΦM,175.2 ± 3.8 Φ gm/mg protein
same,Total Cholesterol,100 ΦM,181.7 ± 9.3 Φ gm/mg protein
"N-RVLEEEENK-C [Peptide 3, oligopeptide corresponding to a hydrophilic amino acid maximum of human hydroxy-methyl-glutaryl-CoA-reductase]",Cholesterol Lowering in % of Control,1 ΦM,10.0%
same,Cholesterol Content Cell,1 ΦM,137.3 ± 4.5 Φ gm/mg protein
same,Cholesterol Content Media,1 ΦM,64.0 ± 2.7 Φ gm/mg protein
same,Cholesterol Lowering in % of Control,10 ΦM,10.0%
same,Cholesterol Content Cell,10 ΦM,135.0 ± 4.5 Φ gm/mg protein
same,Cholesterol Content Media,10 ΦM,65.5 ± 4.7 Φ gm/mg protein
same,Cholesterol Lowering in % of Control,100 ΦM,10.0%
same,Cholesterol Content Cell,100 ΦM,135.0 ± 7.0 Φ gm/mg protein
same,Cholesterol Content Media,100 ΦM,65.5 ± 1.4 Φ gm/mg protein
same,Total Cholesterol,1 ΦM,201.3 ± 3.3 Φ gm/mg protein
same,Total Cholesterol,10 ΦM,200.7 ± 9.0 Φ gm/mg protein
same,Total Cholesterol,100 ΦM,200.5 ± 5.4 Φ gm/mg protein
"N-SQDEVREN-C [Peptide 1, oligopeptide corresponding to a hydrophilic amino acid maximum of human hydroxy-methyl-glutaryl-CoA-reductase]",Cholesterol Lowering in % of Control,1 ΦM,28.0%
same,Cholesterol Content Cell,1 ΦM,92.5 ± 4.7 Φ gm/mg protein
same,Cholesterol Content Media,1 ΦM,65.2 ± 4.0 Φ gm/mg protein
same,Cholesterol Lowering in % of Control,10 ΦM,30.0%
same,Cholesterol Content Cell,10 ΦM,88.6 ± 1.6 Φ gm/mg protein
same,Cholesterol Content Media,10 ΦM,60.6 ± 0.5 Φ gm/mg protein
same,Cholesterol Lowering in % of Control,100 ΦM,30.0%
same,Cholesterol Content Cell,100 ΦM,94.0 ± 4.0 Φ gm/mg protein
same,Cholesterol Content Media,100 ΦM,61.1 ± 2.4 Φ gm/mg protein
same,Total Cholesterol,1 ΦM,158.7 ± 5.6 Φ gm/mg protein
same,Total Cholesterol,10 ΦM,149.1 ± 2.0 Φ gm/mg protein
same,Total Cholesterol,100 ΦM,155.3 ± 6.4 Φ gm/mg protein

# Source: patent publication US7300918B2, “Method of producing vaccines from protein signal oligopeptides” (priority 1994, dated 2007)
